Data reported in patent EP0143016A1, “Derivatives of 4-(3-alkynyloxy-2-hydroxy-propyl)-piperazin-1-yl-N-phenyl acetamide, their preparation and their therapeutical use” (RIOM LABORATOIRES- C.E.R.M. "R.L.-CERM" - (S.A.), priority 1983, dated 1985).

Legend:
chien anesthésié [1] = assay: Hemodynamic effects in the anesthetized dog: heart rate; type: in vivo; conditions: duration of action (durée d'action), unit not given; dog anesthetized with chloralose; 5 mg.kg^-1 I.V.
Procedure: (§1) L'activité anti-angineuse des composés de l'invention a été étudiée chez l'animal en recherchant leurs effets hémodynamiques sur le chien anesthésié, conformément au protocole résumé ci-après.
(§2) Chez le chien anesthésié au chloralose (100 mg.kg^-1 I.V.), les paramètres suivants sont enregistrés : • - fréquence cardiaque à l'aide d'électrodes à E C G sous-cutanée reliées à un cardiotachymètre BECKMAN (dérivation D II) • - débit artériel coronaire enregistré par l'intermédiaire d'un débitmètre électromagnétique STATHAN® • - on étudie aussi l'action antitachycardisante en mesurant son activité inhibitrice des effets chronotropes positifs de l'isoprénaline.
(§3) Les différents paramètres sont enregistrés en continu sur un dynographe BECKMAN®, et on mesure en même temps la durée d'action.
(§4) Les composés de l'invention sont administrés par voie I.V. à la dose de 5 mg.kg^-1.
(§5) Les résultats enregistrés, exprimés sous forme de pourcentage de variation, sont résumés dans le tableau I ci-après.

chien anesthésié [2] = assay: Hemodynamic effects in the anesthetized dog: coronary arterial flow; type: in vivo; conditions: duration of action (durée d'action), unit not given; dog anesthetized with chloralose; 5 mg.kg^-1 I.V.
Procedure: as §1, §2, §3, §4, §5

[3] = test system: effets chronotropes positifs de l'isoprénaline; assay: Antitachycardic action in the anesthetized dog: inhibition of the positive chronotropic effects of isoprenaline; type: in vivo, chien; conditions: duration of action (durée d'action), unit not given; isoprenaline tachycardia; dog anesthetized with chloralose; 5 mg.kg^-1 I.V.
Procedure: as §1, §2, §3, §4, §5

Row | SMILES | FREQUENCE CARDIAQUE D (chien anesthésié [1]) | DEBIT CORONAIRE D (chien anesthésié [2]) | ANTITACHY-CARDIE D [3]
1 | CC#CC1(OCC(O)CN2CCN(CC(=O)N(C)c3ccc(Cl)cc3C(=O)c3ccccc3)CC2)CCCCC1 (stereo not drawn) [compound 2] | 60 | 3 | 60
2 | C#CC1(OCC(O)CN2CCN(CC(=O)Nc3ccc(Cl)cc3C(=O)c3ccccc3Cl)CC2)CCCCC1 (stereo not drawn) [compound 4, 4-[3-(1-ethynyl-cyclohexyloxy)-2-hydroxy-propyl]-piperazin-1-yl-N-[4-chloro-2-(2-chlorobenzoyl)-phenyl] acetamide] | >15 | 1 | 35
3 | C#CC(C)(OCC(O)CN1CCN(CC(=O)Nc2ccc(Cl)cc2C(=O)c2ccccc2Cl)CC1)c1ccccc1 (stereo not drawn) [compound 6, 4-[3-(α-ethynyl-α-methyl-benzyloxy)-2-hydroxy-propyl]-piperazin-1-yl-N-[2-(2-chlorobenzoyl)-4-chloro-phenyl]acetamide] | >45 | 3 | 15
4 | C#CC1(OCC(O)CN2CCN(CC(=O)N(C)c3ccc(Cl)cc3C(=O)c3ccccc3)CC2)CCCCC1 (stereo not drawn) [compound 7] | >15 | 2 | 5
5 | CC#CC1(OCC(O)CN2CCN(CC(=O)Nc3ccc(Cl)cc3C(=O)c3ccccc3Cl)CC2)CCCCC1 (stereo not drawn) [compound 9] | 5 | 2 | 5
6 | C#CC(C)(OCC(O)CN1CCN(CC(=O)N(C)c2ccc(Cl)cc2C(=O)c2ccccc2)CC1)c1ccccc1 (stereo not drawn) [compound 10] | 15 | 0,5 | 15
